Laboratory results published in patent US8247211B2, “Glycopeptide antibiotics” (American Cyanamid Company, priority 2001, dated 2012).
Numbered stars: 1 amine (or outer) side, 2 acyl side, 3 side chain; on linkers, the order of the positions; unused ones are H or OH. Square brackets hold non-standard residues; d marks the D form. Peptide text beside a SMILES is read from it. * marks the point of attachment. ξ: configuration not given here. X1 = N=C1NCC(C(O)C(N[*:1])C(=O)[*:2])N1C1OC(CO)C(O)C(O)C1O; ξEnduracididine(βξ-OH,4'ξ) = N=C1NCC(C(O)C(N)C(=O)O)N1; X2 = OCC1OC(OC2C(CO)OC(*)C(O)C2O)C(O)C(O)C1O; ξCha(3ξ-Me) = CC(C1CCCCC1)C(N)C(=O)O; Cha = N[CH](CC1CCCCC1)C(=O)O

What was measured:
Test in all cases: In vitro antibacterial evaluation: minimum inhibitory concentration (MIC), broth dilution method
Format in all cases: cell-based
[1] = tested on: Enterococcus sp.; conditions: broth dilution, 18 hours at 35° C.
Outline: (§1)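 Following NCCLS approved standard M7-A2, compounds are serially diluted from 64 to 0.06 μg/mL in Muller-Hinton II […] and inoculated at 5×10^5 CFU/mL; the MIC is the minimum concentration at which growth is inhibited.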

[2] = tested on: Staphylococcus sp.; conditions: broth dilution, 18 hours at 35° C.; for MIC Staphylococcus aureus-SMITH (GC 4543): strain SMITH GC 4543
Outline: as §1

[3] = tested on: Streptococcus sp.; conditions: broth dilution, 18 hours at 35° C.
Outline: as §1

[4] = tested on: Escherichia coli; conditions: broth dilution, 18 hours at 35° C.
[5] = Enterococcus faecalis (GC 2242)
[6] = Enterococcus faecalis (GC 2691)
[7] = Enterococcus faecalis (GC 3059)
[8] = Streptococcus agalactiae (GC 4564)
[9] = Streptococcus pneumoniae (ATCC 6301)
[10] = Streptococcus pneumoniae (GC 1894)
[11] = Streptococcus pneumoniae (GC 4565)
[12] = Streptococcus pyogenes (GC 4563)

CC(C1CCCCC1)C1NC(=O)CNC(=O)C(CO)NC(=O)C(C(O)C2CNC(=N)N2C2OC(CO)C(O)C(O)C2O)NC(=O)C(C(O)C2CNC(=N)N2)NC(=O)C(Cc2ccc(OC3OC(CO)C(OC4OC(CO)C(O)C(O)C4O)C(O)C3O)cc2)NC1=O (stereo not drawn) [Example 51, Cyclo[3-cyclohexyl-2-aminobutyl-O-(4-O-hexopyranosylhexopyranosyl)tyrosyl-3-(2-iminoimidazolidin-4-yl)seryl-3-(3-hexopyranosyl-2-iminoimidazolidin-4-yl)-serylserylglycyl]] (cyclo(G[ξCha(3ξ-Me)]Y(X2)[ξEnduracididine(βξ-OH,4'ξ)][X1]S); configuration not given here)
4 µg/mL: MIC Coagulase Negative Staphylococcus (GC 4549) [2] | MIC Streptococcus pneumoniae (GC 1894) [3, 10] | MIC Streptococcus pneumoniae (GC 1894) [3]
64 µg/mL: MIC Enterococcus avium (GC 4558) ([1]; Enterococcus avium (GC 4558)) | MIC Enterococcus faecalis (GC 2242) [1, 5] | MIC Enterococcus avium (GC 4558) [1] | MIC Enterococcus faecalis (GC 2242) [1] | MIC Coagulase Negative Staphylococcus (GC 4551) [2] | MIC Escherichia coli (GC 4559) [4]
8 µg/mL: MIC Streptococcus pneumoniae (ATCC 6301) [3, 9] | MIC Streptococcus pneumoniae (GC 4565) [3, 11] | MIC Streptococcus pyogenes (GC 4563) [3, 12] | MIC Streptococcus pneumoniae (ATCC 6301) [3] | MIC Streptococcus pneumoniae (GC 4565) [3] | MIC Streptococcus pyogenes (GC 4563) [3] | MIC Escherichia coli (GC 4560) [4]
16 µg/mL: MIC Enterococcus faecium (GC 4557) ([1]; Enterococcus faecium (GC 4557)) | MIC Enterococcus faecium (GC 4557) [1] | MIC Coagulase Negative Staphylococcus (GC 4547) [2] | MIC Coagulase Negative Staphylococcus (GC 4548) [2] | MIC Streptococcus agalactiae (GC 4564) [3, 8] | MIC Streptococcus agalactiae (GC 4564) [3]
32 µg/mL: MIC Staphylococcus aureus SMITH (GC 4543) [2] | MIC Staphylococcus haemolyticus (GC 4546) [2] | MIC Staphylococcus aureus-SMITH (GC 4543) [2]
>64 µg/mL: MIC Enterococcus faecalis (ATCC 29212) ([1]; Enterococcus faecalis (ATCC 29212)) | MIC Enterococcus faecalis (GC 2691) [1, 6] | MIC Enterococcus faecalis (GC 3059) [1, 7] | MIC Enterococcus faecalis (GC 4552) ([1]; Enterococcus faecalis (GC 4552)) | MIC Enterococcus faecalis (GC 4553) ([1]; Enterococcus faecalis (GC 4553)) | MIC Enterococcus faecalis (GC 4554) ([1]; Enterococcus faecalis (GC 4554)) | MIC Enterococcus faecalis (GC 6189) ([1]; Enterococcus faecalis (GC 6189)) | MIC Enterococcus faecium (GC 2243) ([1]; Enterococcus faecium (GC 2243)) | MIC Enterococcus faecium (GC 4556) ([1]; Enterococcus faecium (GC 4556)) | MIC Enterococcus faecalis (ATCC 29212) [1] | MIC Enterococcus faecalis (GC 2691) [1] | MIC Enterococcus faecalis (GC 3059) [1] | MIC Enterococcus faecalis (GC 4552) [1] | MIC Enterococcus faecalis (GC 4553) [1] | MIC Enterococcus faecalis (GC 4554) [1] | MIC Enterococcus faecalis (GC 6189) [1] | MIC Enterococcus faecium (GC 2243) [1] | MIC Enterococcus faecium (GC 4556) [1] | MIC Escherichia coli (ATCC 25922) [4]

CC(C1CCCCC1)C1NC(=O)CNC(=O)C(CO)NC(=O)C(C(O)C2CNC(=N)N2C2OC(CO)C(O)C(O)C2O)NC(=O)C(C(O)C2CNC(=N)N2)NC(=O)C(CC2CCCCC2)NC1=O (stereo not drawn) [Example 53, Cyclo[3-cyclohexylalanyl-3-(2-iminoimidazolidin-4-yl)seryl-3-(3-hexopyranosyl-2-iminoimidazolidin-4-yl)serylserylglycyl-3-cyclohexyl-2-aminobutanoyl]] (cyclo(G[ξCha(3ξ-Me)][Cha][ξEnduracididine(βξ-OH,4'ξ)][X1]S); configuration not given here)
4 µg/mL: MIC Enterococcus avium (GC 4558) [1] | MIC Enterococcus faecalis (GC 4553) [1] | MIC Enterococcus faecalis (GC 6189) [1] | MIC Streptococcus pneumoniae (GC 4565) [3, 11] | MIC Streptococcus pneumoniae (GC 4565) [3] | MIC Escherichia coli (GC 4560) [4]
2 µg/mL: MIC Enterococcus faecium (GC 2243) [1] | MIC Enterococcus faecium (GC 4557) [1] | MIC Coagulase Negative Staphylococcus (GC 4547) [2] | MIC Coagulase Negative Staphylococcus (GC 4548) [2] | MIC Coagulase Negative Staphylococcus (GC 4551) [2] | MIC Staphylococcus aureus SMITH (GC 4543) [2] | MIC Staphylococcus aureus-SMITH (GC 4543) [2]
8 µg/mL: MIC Enterococcus faecalis (GC 2242) [1, 5] | MIC Enterococcus faecalis (GC 2691) [1, 6] | MIC Enterococcus faecalis (GC 3059) [1, 7] | MIC Enterococcus faecalis (ATCC 29212) [1] | MIC Enterococcus faecalis (GC 2242) [1] | MIC Enterococcus faecalis (GC 2691) [1] | MIC Enterococcus faecalis (GC 3059) [1] | MIC Enterococcus faecalis (GC 4552) [1] | MIC Enterococcus faecium (GC 4556) [1]
16 µg/mL: MIC Enterococcus faecalis (GC 4554) [1]
1 µg/mL: MIC Coagulase Negative Staphylococcus (GC 4549) [2] | MIC Staphylococcus haemolyticus (GC 4546) [2] | MIC Streptococcus agalactiae (GC 4564) [3, 8] | MIC Streptococcus pneumoniae (ATCC 6301) [3, 9] | MIC Streptococcus pneumoniae (GC 1894) [3, 10] | MIC Streptococcus pyogenes (GC 4563) [3, 12] | MIC Streptococcus agalactiae (GC 4564) [3] | MIC Streptococcus pneumoniae (ATCC 6301) [3] | MIC Streptococcus pneumoniae (GC 1894) [3] | MIC Streptococcus pyogenes (GC 4563) [3]
